This experiment relates to fumonisin B1 monoclonal antibody secreted from the hybridoma cell line Fm7A11. The class given is binding, BALB/c mice.

With `CCCC[C@@H](C)[C@@H](OC(=O)C[C@@H](CC(=O)O)C(=O)O)[C@H](C[C@@H](C)C[C@H](O)CCCCCC[C@H](O)[C@H](C)N)OC(=O)C[C@@H](CC(=O)O)C(=O)O` [fumonisin B3], the “Cross rates of response” value turned out to be 12.8%. For the molecule `CCCC[C@@H](C)[C@@H](OC(=O)C[C@@H](CC(=O)O)C(=O)O)[C@H](C[C@@H](C)C[C@H](O)CCCC[C@@H](O)C[C@H](O)[C@H](C)N)OC(=O)C[C@@H](CC(=O)O)C(=O)O` [fumonisin B1], the “sensitivity (IC50, concentration of competitive antigen at 50% suppression ratio)” value is 0.32 ng/mL. `CCCC[C@@H](C)[C@@H](OC(=O)C[C@@H](CC(=O)O)C(=O)O)[C@H](C[C@@H](C)CCCCCC[C@@H](O)C[C@H](O)[C@H](C)N)OC(=O)C[C@@H](CC(=O)O)C(=O)O` [fumonisin B2]: the “Cross rates of response” value was 4.3%.
